# Results published in US8158621B2, “Methods of treating or preventing autoimmune diseases with 2,4-pyrimidinediamine compounds” (Rigel Pharmaceuticals, Inc., priority 2002, dated 2012).
# Where two headings read alike, the source gives them in different places.
# How the values were obtained:
# Type in all cases: cell-based
# [1] = tested on: cultured human mast cells (CHMC); assay: CHMC low cell density ionomycin activation: tryptase assay; conditions: read-out: CHMC Ionomycin Tryptase
# [2] = tested on: cultured human mast cells (CHMC); assay: CHMC low cell density IgE activation: tryptase assay
# Method: Pellet CHMC cells (980 rpm, 10 min) and resuspend in pre-warmed MT. Add 65 ul of cells to each 96-well plate. Depending on the degranulation activity for each particular CHMC donor, load 1000-1500 cells/well. Mix four times followed by a 1 hr incubation at 37° C. […] Stimulate cells by adding 25 ul of 6× anti-IgE solution to the appropriate plates. Add 25 ul MT to un-stimulated control wells. Mix twice following addition of the anti-IgE. Incubate at 37° C. for 30 minutes. […] Spin plates at 1000 rpm for 10 min to pellet cells. Transfer 25 ul of supernatant to a 96-well black bottom plate and add 100 ul of freshly diluted tryptase substrate solution to each well. Incubate plates at room temperature for 30 min.
# [3] = tested on: Human Jurkat T-cells (clone N); assay: Jurkat T-cell activation (anti-TCR, CD69 upregulation)
# In short: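 Readout is CD69 upregulation by flow cytometry (anti-CD69-APC, 20 min at 4 °C) after 20 h anti-TCR (C305, 500 ng/ml) stimulation at 37 °C.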
# [4] = low cell density, read-out: CHMC anti-IgE Tryptase
# [5] = Homo sapiens, Mast cell, Low Density, read-out: CHMC anti-IgE Tryptase
# [6] = Homo sapiens, Mast cell, Low Density CHMC, anti-IgE activation, tryptase release, read-out: CHMC anti-IgE Tryptase IC50
IC50 ([1]; low cell density) [µM],"IC50 [2, 4] [µM]",SMILES,further results
> 10,1.42,CCN(CC)CCNC(=O)c1ccc(Nc2ncc(F)c(Nc3ccc4c(c3)C(=O)NC(=O)C4(C)C)n2)cc1 [Compound R950447],
> 10,1.2,CC(C)NC(=O)C1Cc2cc(Nc3ncc(F)c(Nc4ccc(OC(F)(F)F)c(Cl)c4)n3)ccc2O1 (stereo not drawn) [Compound R926961],
23,0.414,CC1(C)Oc2ccc(Nc3ncc(F)c(Nc4ccc5[nH]ncc5c4)n3)cc2NC1=O [Compound R935438],
> 10,> 10,COc1cc(Nc2ncc(F)c(Nc3ccc4c(c3)C(=O)NC(=O)C4(C)C)n2)cc(OC)c1 [Compound R909323],
> 10,8.64,NC(=O)c1ccc(Nc2ncc(F)c(Nc3ccc4c(c3)NC(=O)C(CCO)O4)n2)cc1 (racemic) [Compound R950454],
5.61,1.24,Fc1cnc(Nc2ccc(Cl)c(Cl)c2)nc1NC1CCC1 [Compound R945394],
> 10,0.402,COc1cc(Nc2ncc(F)c(Nc3cccc(NC(C)=O)n3)n2)cc(OC)c1 [Compound R927096],
> 10,2.16,CNC(=O)COc1cccc(Nc2ncc(F)c(Nc3ccc4c(c3)[C@@H](NC(=O)OCc3ccccc3)CCO4)n2)c1 [Compound R950417],
> 10,0.235,COc1cc(Nc2ncc(F)c(Nc3ccc4c(c3)NC(=O)C(C)(C)O4)n2)cc(C(F)(F)F)c1 [Compound R927065],
> 10,6.95,CCN(CC)CCCNc1ncc(F)c(Nc2ccc3c(c2)C(=O)NC(=O)C3(C)C)n1 [Compound R950472],
5.48,0.085,COc1ccc(Nc2ncc(F)c(Nc3ccc4c(c3)NC(=O)C(CCO)O4)n2)cc1Cl (stereo not drawn) [Compound R908951],
> 10,1,O=C(COc1cccc(Nc2ncc(F)c(NC3CC3)n2)c1)NC1CCC1 [Compound R945364],
11,0.184,Cn1cc2ccc(Nc3ncc(F)c(Nc4ccc5c(c4)NC(=O)C(C)(C)O5)n3)cc2n1 [Compound R935445],
> 10,0.081,O=C1COc2ccc(Nc3nc(Nc4ccc5cc[nH]c5c4)ncc3F)nc2N1 [Compound R945443],
9.09,1.67,CNC(=O)COc1cccc(Nc2ncc(F)c(Nc3ccc4c(c3)[C@H](NC(=O)OCc3ccccc3)CCO4)n2)c1 [Compound R950418],
> 10,0.29,Cc1cc(Nc2ncc(F)c(Nc3ccc4c(c3)C(=O)NC(=O)C4(C)C)n2)cc(Cl)c1O [Compound R909320],
22.5,0.625,COc1cc(Nc2ncc(F)c(Nc3ccc(OC(F)(F)F)c(Cl)c3)n2)cc(OC)c1 [Compound R927067],
6.53,0.475,CC(C)(C)OC(=O)NC1CCOc2ccc(Nc3nc(Nc4ccc5cn[nH]c5c4)ncc3F)cc21 (racemic) [Compound R950422],
> 10,0.286,Cc1cccc(C)c1Nc1ncc(F)c(Nc2ccc3c(c2)OCCO3)n1 [Compound R927086],
> 10,,O=C1COc2ccc(Nc3nc(Nc4cccc(Br)c4)ncc3F)nc2N1 [Compound R945455],
> 10,,Cc1cc(C)cc(Nc2ncc(F)c(Nc3ccc4c(c3)NC(C)(C)CO4)n2)c1 [Compound R908586],
> 10,,CNC(=O)COc1cccc(Nc2ncc(F)c(Nc3ccc4c(c3)[C@H](N)CCO4)n2)c1 [Compound R950421],
15.2,,Cc1cc(C)cc(Nc2ncc(F)c(Nc3ccc4c(c3)NC(=O)C(C)(C)O4)n2)c1 [Compound R927075],
> 10,,COc1ccc(Nc2ncc(F)c(Nc3ccc4c(c3)NC(C)(C)CO4)n2)cc1Cl [Compound R908587],
9.3,,CC1(C)Oc2ccc(Nc3nc(Nc4ccc5cn[nH]c5c4)ncc3F)cc2NC1=O [Compound R935430],
> 10,,CNC(=O)COc1cccc(Nc2ncc(F)c(Nc3ccc4c(c3)NC(=O)C(C)(C(=O)NC)O4)n2)c1 (racemic) [Compound R940365],

# Second part, the molecule before the results:
SMILES,IC50 ([1]; low cell density) [µM],"IC50 [2, 4] [µM]",further results
COc1ccc(Nc2nc(Nc3cccc(OCC(=O)NC4CCC4)c3)ncc2F)cc1Cl [Compound R926969],> 10,0.359,
Fc1cnc(NC2CCC2)nc1Nc1ccc(N2CCOCC2)cc1 [Compound R945358],> 10,> 10,
COc1cc(Nc2nc(Nc3ccc(CNC(=O)OC(C)(C)C)cc3)ncc2F)cc(OC)c1 [Compound R950456],4.4,3.78,
COc1ccc(Nc2nc(Nc3ccc4[nH]ncc4c3)ncc2F)cc1Cl [Compound R935459],4.7,0.343,
CNC(=O)COc1cccc(Nc2ncc(F)c(Nc3ccc4c(c3)[C@@H](N)CCO4)n2)c1 [Compound R950420],> 10,0.114,
CNC(=O)COc1cccc(Nc2ncc(F)c(Nc3ccc(OCCO)c(Cl)c3)n2)c1 [Compound R927047],> 10,0.168,
Fc1cnc(Nc2ccc(OC(F)(F)F)c(Cl)c2)nc1Nc1ccc2c(c1)OCCO2 [Compound R927085],> 10,7.43,
CC(=O)Nc1cccc(Nc2nc(Nc3cc(C)cc(C)c3)ncc2F)n1 [Compound R927092],> 10,0.377,
COc1ccc(Nc2ncc(F)c(Nc3ccc4cc[nH]c4c3)n2)cc1Cl [Compound R927091],> 10,0.27,
CC1=C(Nc2ncc(F)c(Nc3ccc4c(c3)OCCO4)n2)N(c2ccccc2)CO1 [Compound R926793],,,"IC50 ([1]; Homo sapiens, Mast cell, Low Density): > 10 µM; IC50 [2, 5]: 3.07 µM"
CNC(=O)COc1cccc(Nc2ncc(F)c(Nc3ccc(OCc4ccccc4)c(Cl)c3)n2)c1 [Compound R926966],> 10,0.539,
COc1cc(Nc2ncc(F)c(Nc3ccc4cc[nH]c4c3)n2)cc(OC)c1 [Compound R927089],> 10,0.144,
CNC(=O)COc1cccc(Nc2ncc(F)c(Nc3ccc4c(c3)C(N(C)C(=O)OC(C)(C)C)CCO4)n2)c1 (racemic) [Compound R950415],16.3,5.19,
O=C(NCCO)C1Cc2cc(Nc3ncc(F)c(Nc4ccc(OC(F)(F)F)c(Cl)c4)n3)ccc2O1 (racemic) [Compound R926959],> 10,0.3,
COc1c(Cl)cc(Nc2ncc(F)c(Nc3ccc4c(c3)NC(=O)C(C)(C)O4)n2)cc1Cl [Compound R927056],1.58,0.144,
Cc1cc(Nc2nc(Nc3cccc(OCCN4CCOCC4)c3)ncc2F)cc(Cl)c1O [Compound R940269],,,IC50 [3]: 1.9 µM; IC50 ([1]; Low Density): > 10 µM
COc1cc(Nc2ncc(F)c(Nc3ccc4c(c3)NC(=O)[C@@H](C)O4)n2)cc(OC)c1 [Compound R908954],> 10,,

SMILES,IC50 ([1]; low cell density) [µM],"IC50 [2, 4] [µM]",further results
COc1ccc(Nc2nc(Nc3ccc4cn(C)nc4c3)ncc2F)cc1Cl [Compound R935446],> 10,0.395,
NC1CCOc2ccc(Nc3nc(Nc4ccc5cn[nH]c5c4)ncc3F)cc21 (racemic) [Compound R950423],> 10,0.05,
CNC(=O)COc1cccc(Nc2ncc(F)c(Nc3ccc4c(c3)C(N(C)C(=O)CN(C)C)CCO4)n2)c1 (racemic) [Compound R950419],> 10,3.26,
CC1(C)C(=O)NC(=O)c2cc(Nc3nc(Nc4ccc(C(N)=O)cc4)ncc3F)ccc21 [Compound R950453],> 10,,
CNC(=O)COc1cccc(Nc2ncc(F)c(Nc3ccc4c(c3)C(NC(=O)OC(C)(C)C)CCO4)n2)c1 (racemic) [Compound R950405],> 10,1.36,
CN1C=COc2ccc(Nc3nc(Nc4cccc(O)c4)ncc3F)cc21 [Compound R908710],,,"IC50 [3]: 4.28 µM; IC50 ([2]; Low Density, read-out: CHMC anti-IgE Tryptase): 1.84 µM"
Fc1cnc(Cl)nc1Nc1ccc(Cl)c(C(F)(F)F)c1 [Compound R926877],,,"IC50 ([3]; Homo sapiens, Jurkat): > 10 µM; IC50 [2, 5]: > 10 µM"
Oc1cccc(Nc2ncc(F)c(Nc3ccc4c(c3)OCCO4)n2)c1 [Compound R925796],,,"IC50 ([3]; Homo sapiens, Jurkat): 1.83 µM; IC50 [2, 6]: 2 µM"
Cc1cccc(Nc2nc(Cl)ncc2F)n1 [Compound R926888],,,"IC50 ([3]; Homo sapiens, Jurkat): 5.58 µM; IC50 [2, 5]: > 10 µM"
Fc1cnc(Cl)nc1Nc1ccc(C(F)(F)F)cc1 [Compound R926876],,,"IC50 ([3]; Homo sapiens, Jurkat): > 10 µM; IC50 [2, 5]: > 10 µM"
COC1=CC=C(Nc2nc(Cl)ncc2F)CC1=CN(C(=O)OC(C)(C)C)C(C)C [Compound R940320],,,"IC50 ([3]; Homo sapiens, Jurkat): 7.82 µM; IC50 [2, 5]: > 10 µM"
O=C1COc2ccc(Nc3ncc(F)c(Nc4cccc(O)c4)n3)cc2N1 [Compound R909238],,,"IC50 ([3]; Homo sapiens, Jurkat): 5.02 µM; IC50 [2, 6]: 0.174 µM"
COc1ccc(Nc2nc(Cl)ncc2F)cn1 [Compound R926878],,,"IC50 ([3]; Homo sapiens, Jurkat): > 10 µM; IC50 [2, 5]: > 10 µM"
COC(=O)c1cc(Nc2nc(Nc3ccc(OC(C)C)cc3)ncc2F)cn1C [Compound R935165],,,IC50 [3]: > 10 µM; IC50 ([1]; Low Density): > 10 µM
COc1ccc(Nc2nc(Nc3ccc4c(cnn4C)c3)ncc2F)cc1Cl [Compound R935458],> 10,,
Fc1cnc(Cl)nc1Nc1ccc(Cl)c(Cl)c1 [Compound R926884],,,"IC50 ([3]; Homo sapiens, Jurkat): > 10 µM; IC50 [2, 5]: > 10 µM"
